{"source": "patent EP2077104A1", "about": "“Micellar compositions with ophtalmic applications” (Novagali Pharma S.A., priority 2008, dated 2009)", "assay": "Zeta potential of emulsion surface", "type": "physicochemical", "conditions": "0.002% CKC in emulsion", "text": "Thus in preferred embodiments, micellar compositions of the present invention have a positive zeta potential. As known in the art, the zeta potential is a measure of the magnitude of repulsion or attraction between particles (Washington, Adv. Drug Deliv. Reviews, 1996, 20:131-145). The Zeta potential is not measurable directly but it can be calculated using theoretical models and an experimentally-determined electrophoretic mobility or dynamic electrophoretic mobility. As known in the art, electrophoretic mobility can be determined using micro-electrophoresis or electrophoretic light scattering.\nAll the eye drops were supplied by Novagali Pharma (Evry, France) and were sterile with physiological pH and osmolality. The present Applicants chose to compare 0.02% BAK to 0.002% CKC since these two QAC concentrations confer equivalent positive charge to the emulsion surface (zeta potential around 20 mV)."}
{"smiles": "CCCCCCCCCCCCCCCC[N+](C)(C)Cc1ccccc1", "note": "[Cetalkonium chloride, cetalkonium chloride]", "values": [{"measurement": "zeta potential", "value": "around 20 mV"}]}
